This passage reports viscosity results from a compilation of properties of binary mixtures (doi:10.1007/s10765-020-02720-w).

The viscosity is the internal friction of a fluid under shear. Read a low viscosity as a thin fluid.

The nature of the data set: xn = mol fraction of the nth substance listed. As to conditions: 100 kPa.

Turning to `C[n+]1ccn(CCC(F)(F)C(F)(F)F)c1.F[P-](F)(F)(F)(F)F` + CCCC[n+]1ccn(C)c1.F[P-](F)(F)(F)(F)F, the viscosity was found to be 430 mPa·s (293.2 K, x2 = 0.91); 370 mPa·s (293.2 K, x2 = 0.972); 171 mPa·s (308.19 K, x2 = 0.91); 153 mPa·s (308.19 K, x2 = 0.972); 46.2 mPa·s (338.16 K, x2 = 0.91); 17.6 mPa·s (368.13 K, x2 = 0.91). The molecule further yielded a viscosity (368.13 K, x2 = 0.972) of 16.38 mPa·s.

As to `CCCC[n+]1ccn(C)c1.F[P-](F)(F)(F)(F)F` + C[n+]1ccn(CCC(F)(F)C(F)(F)F)c1.F[P-](F)(F)(F)(F)F, the viscosity reads like this: (293.2 K, x1 = 1) 343 mPa·s; (308.19 K, x1 = 1) 144 mPa·s; (338.16 K, x1 = 1) 39.5 mPa·s; (368.13 K, x1 = 1) 16.34 mPa·s.
